Results reported in patent US11708373B2, “5-alkylquinazoline derivative, method of preparing the same, and method of using the same” (Hefei University of Technology, priority 2020, dated 2023).

Tested on: breast cancer cells (MCF)
Experiment: MCF test of breast cancer cells
Format: cell-based
Text: Therefore, the compounds of the present application are expected to be useful in the treatment of various cancers, such as cervical cancer.

COC(=O)C1=NC2(Nc3ccc(C)cc31)C(=O)Nc1ccc(C)cc12 (stereo not shown) [Compound II]
ED50, inhibitory activity in the MCF test of breast cancer cells: < 10.0 µg/mL
